Reference: ChEMBL document CHEMBL1201862, “PubChem BioAssay data set” (2004)
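Following 48 hours of exposure in 96-well plates, responses at five concentrations were used to interpolate endpoints linearly. Here, GI50 denotes the concentration required for 50% inhibition of growth.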 Calls of active or inactive are those of the source. No stated cut-off is given here; in the data, active = GI50 up to about 1.1 µM and inactive = higher.

Columns and labels:
Assay in all cases: NCI anticancer screen, dose series, 48 h
SK-MEL-28 = test system: SK-MEL-28
TK-10 = test system: TK-10
CCRF-CEM = test system: CCRF-CEM
HCT-116 = test system: HCT-116
HL-60 = test system: HL-60
SF-539 = test system: SF-539
SNB-19 = test system: SNB-19
KM12 = test system: KM12
SR = test system: SR
OVCAR-3 = test system: OVCAR-3
HOP-92 = test system: HOP-92
SN12C = test system: SN12C
MOLT-4 = test system: MOLT-4
NCI-H522 = test system: NCI-H522
U-251 = test system: U-251
RXF 393 = test system: RXF 393
HCT-15 = test system: HCT-15
OVCAR-5 = test system: OVCAR-5

SMILES	GI50 (SK-MEL-28)	GI50 (TK-10)	GI50 (CCRF-CEM)	GI50 (HCT-116)	GI50 (HL-60)	GI50 (SF-539)	GI50 (SNB-19)	GI50 (KM12)	GI50 (SR)	GI50 (OVCAR-3)	GI50 (HOP-92)	GI50 (SN12C)	GI50 (MOLT-4)	GI50 (NCI-H522)	GI50 (U-251)	GI50 (RXF 393)	GI50 (HCT-15) [µM]	GI50 (OVCAR-5)
CCCCCCCCCCCCCCCCCC(=O)NCC(COP(=O)(O)O)OCC (configuration not stated)	> 100 µM (inactive)	49.2 µM (inactive)	> 100 µM (inactive)	58.6 µM (inactive)	> 100 µM (inactive)	43.6 µM (inactive)	47.2 µM (inactive)	25 µM (inactive)	> 100 µM (inactive)	> 100 µM (inactive)	13.7 µM (inactive)	22 µM (inactive)	> 100 µM (inactive)	29.7 µM (inactive)				
Cn1c(CBr)nc2c1C(=O)c1nc(CBr)[nH]c(=O)c1C2=O	> 100 µM (inactive)	> 100 µM (inactive)	40.5 µM (inactive)	> 100 µM (inactive)		> 100 µM (inactive)					61.4 µM (inactive)	> 100 µM (inactive)	> 100 µM (inactive)	> 100 µM (inactive)	> 100 µM (inactive)	> 100 µM (inactive)	> 100	
CC(c1ccc(Br)cc1)C(C(=O)O)C(=O)O (configuration not stated)	> 100 µM (inactive)	> 100 µM (inactive)	> 100 µM (inactive)	> 100 µM (inactive)	> 100 µM (inactive)		> 100 µM (inactive)	> 100 µM (inactive)	> 100 µM (inactive)	> 100 µM (inactive)		> 100 µM (inactive)	> 100 µM (inactive)	> 100 µM (inactive)	> 100 µM (inactive)	> 100 µM (inactive)	> 100	> 100 µM (inactive)
CN1/C(=C/C(=O)c2ccc(Cl)cc2)Nc2ccccc21	99.1 µM (inactive)		34.8 µM (inactive)	45.7 µM (inactive)	25.1 µM (inactive)	58.7 µM (inactive)	41.6 µM (inactive)	42.4 µM (inactive)	32.2 µM (inactive)	47.1 µM (inactive)		60.4 µM (inactive)	22.6 µM (inactive)	19.1 µM (inactive)	47.3 µM (inactive)	> 100 µM (inactive)	45.9	18.9 µM (inactive)
CC(C)(C)OP(=O)(OC(C)(C)C)C(O)c1ccc(/C=C(\C#N)C(N)=O)cc1 (configuration not stated)	> 100 µM (inactive)	> 100 µM (inactive)	> 100 µM (inactive)	> 100 µM (inactive)	38.9 µM (inactive)	> 100 µM (inactive)	> 100 µM (inactive)	> 100 µM (inactive)		> 100 µM (inactive)	> 100 µM (inactive)	> 100 µM (inactive)	> 100 µM (inactive)	> 100 µM (inactive)	> 100 µM (inactive)	> 100 µM (inactive)	> 100	> 100 µM (inactive)
N#C/C(=C1\SC(/N=N/c2ccc(Cl)cc2)C(=O)N1c1ccccc1)c1nc2ccccc2[nH]1 (configuration not stated)	36 µM (inactive)	24.9 µM (inactive)	16.9 µM (inactive)	46 µM (inactive)	45.6 µM (inactive)	32.4 µM (inactive)	30.1 µM (inactive)			17.1 µM (inactive)	18.8 µM (inactive)	96.8 µM (inactive)		23.8 µM (inactive)	20.3 µM (inactive)	36.6 µM (inactive)	65.8	25.6 µM (inactive)
O=S(=O)(O)c1ccc(/N=N/c2nc(C(F)(F)F)c(C(F)(F)F)[nH]2)cc1	19.2 µM (inactive)	> 100 µM (inactive)	45.4 µM (inactive)	37.7 µM (inactive)	32.1 µM (inactive)	29.6 µM (inactive)	29.9 µM (inactive)	> 100 µM (inactive)	21.2 µM (inactive)	33 µM (inactive)	16.6 µM (inactive)	66.5 µM (inactive)	24.2 µM (inactive)		41.9 µM (inactive)	18.4 µM (inactive)	31.4	18.1 µM (inactive)
COc1ccc(/C(=N/NC(=O)NN)C(c2ccc(OC)cc2)C2(O)CNc3c(Cl)cc(Cl)cc32)cc1 (configuration not stated)	> 100 µM (inactive)	> 100 µM (inactive)	88.9 µM (inactive)	50.9 µM (inactive)	> 100 µM (inactive)	> 100 µM (inactive)	> 100 µM (inactive)	> 100 µM (inactive)		> 100 µM (inactive)	37.7 µM (inactive)	> 100 µM (inactive)	44.7 µM (inactive)	> 100 µM (inactive)	> 100 µM (inactive)	> 100 µM (inactive)	> 100	> 100 µM (inactive)
COc1ccc(N2C(=O)C3c4[nH]c5ccccc5c4C4CCCCCCCCCCC4C3C2=O)cc1 (configuration not stated)	11.9 µM (inactive)	> 43.8 µM (inactive)	9.27 µM (inactive)	5.25 µM (inactive)	18.9 µM (inactive)	11 µM (inactive)	8.81 µM (inactive)	7.03 µM (inactive)	10.8 µM (inactive)	9.95 µM (inactive)	19 µM (inactive)	4.89 µM (inactive)	15 µM (inactive)	18 µM (inactive)	7.62 µM (inactive)		5.52	> 37.1 µM (inactive)
CN(C)c1ccc(/C=c2\sc3nnc(-c4cccnc4)n3c2=O)cc1	> 100 µM (inactive)	> 100 µM (inactive)	> 100 µM (inactive)	> 100 µM (inactive)	> 100 µM (inactive)	> 100 µM (inactive)	> 100 µM (inactive)	> 100 µM (inactive)		> 100 µM (inactive)	> 100 µM (inactive)	> 100 µM (inactive)	> 100 µM (inactive)	> 100 µM (inactive)	> 100 µM (inactive)	> 100 µM (inactive)	> 100	> 100 µM (inactive)
CC(C)C(Sc1nc(-c2ccccc2)c(-c2ccccc2)[nH]1)c1n[nH]c(=S)n1-c1ccccc1 (configuration not stated)	29.9 µM (inactive)	45 µM (inactive)	23.9 µM (inactive)	41.6 µM (inactive)	20.7 µM (inactive)	22.4 µM (inactive)	25 µM (inactive)	16.1 µM (inactive)	32.2 µM (inactive)	19.6 µM (inactive)	22.5 µM (inactive)	37.2 µM (inactive)	18 µM (inactive)	21 µM (inactive)	22.9 µM (inactive)		50.5	24.7 µM (inactive)
C=CC[P@@]1(=O)O[C@H](c2ccccc2)C(C)N1C(C)C (some centres not stated)	> 100 µM (inactive)	> 100 µM (inactive)	> 100 µM (inactive)		> 100 µM (inactive)	> 100 µM (inactive)	> 100 µM (inactive)	> 100 µM (inactive)	> 100 µM (inactive)	> 100 µM (inactive)		> 100 µM (inactive)	> 100 µM (inactive)		> 100 µM (inactive)	> 100 µM (inactive)	> 100	> 100 µM (inactive)
COc1cc(/C=C/c2ccc(OC(C)=O)cc2)cc(OC)c1OC	41.5 µM (inactive)	31.9 µM (inactive)	11.6 µM (inactive)	26.9 µM (inactive)	12.4 µM (inactive)	18.6 µM (inactive)	34 µM (inactive)	32 µM (inactive)		22.6 µM (inactive)	30 µM (inactive)	42 µM (inactive)	16.7 µM (inactive)	17.9 µM (inactive)	28 µM (inactive)	11.1 µM (inactive)	27.8	18 µM (inactive)
